Earlier results in patent publication US4339582A (priority 1981, dated 1982).

Details: literature, J. Med. Chem. 18, 1126-30 (1975)

In the case of `c1ccc(C2CCC3CCCCN3C2)cc1` (stereo not shown), the reported activity is given as “antidepressant activity”.
